Data from US10280188B2, “Fluorine-containing bisphosphonic acid derivative and use thereof” (NAGASAKI UNIVERSITY, priority 2015, dated 2019).
Where two headings read alike, the source gives them in different places.

Columns and labels:
[1] = test system: human histiocytic tumor cell line U937; assay: CD107a expression of Vδ2 positive γδ T cells on compound-treated U937 cells (flow cytometry); assay type: cell-based; details: U937 treated 2 hr; Vδ2 positive γδ T cells from normal adult (1)
Method: Furthermore, PE-labeled anti-human CD107a monoclonal antibody (5 μL) was added, and the mixture was incubated at 37° C. for 2 hr. Thereto was added FITC-labeled anti-human Vδ2 monoclonal antibody (2 μL), and the mixture was incubated on ice for 20 min. This was washed 3 times with 2% FCS-added PBS, and suspended in 200 μL of 2% FCS-added PBS.

[2] = test system: human histiocytic tumor cell line U937; assay: Specific cytotoxicity of Vδ2 positive γδ T cells on compound-treated U937 (time-resolved fluorescence)
Method: A dilution series of 0 μM, 100 μM, 300 μM, 1000 μM was prepared for ZOLF.
A dilution series of 0 μM, 300 μM, 1000 μM, 3000 μM was prepared for ALEF.
A dilution series of 0 μM, 300 μM, 1000 μM, 3000 μM was prepared for PAMF.
A dilution series of 0 μM, 300 μM, 1000 μM, 3000 μM was prepared for IBAF.

[3] = test system: Vδ2 positive γδ T cells in peripheral blood mononuclear cells of lung cancer patients; assay: Induction of Vδ2 positive γδ T cell proliferation from peripheral blood mononuclear cells of lung cancer patients (FACS); assay type: cell-based, human; details: ZOLF-POM 1 μM, cultured 11 days with IL-2
Method: (§1) Heparin blood samples (peripheral blood 10 mL) were collected from lung cancer patients (1), and diluted with 10 ml of PBS. This was overlaid on 20 mL of Ficoll-Paque and subjected to density gradient centrifugation at 600×g for 30 min at room temperature. The layer directly above Ficoll-Paque was recovered, and washed 3 times with PBS to give peripheral blood mononuclear cells. The cells were suspended in 7 mL of Yssel medium, 1 mL therefrom was stained with PE-labeled anti-human CD3 monoclonal antibody and FITC-labeled anti-human Vδ2 monoclonal antibody, and analyzed by flow cytometer. As a result, as shown in the panel on the left side in FIG. 5, Vδ2 positive γδ T cells accounted for 4.14% of lymphocyte gate. […] As a result, as shown in the panel on the right side in FIG. 5, Vδ2 positive γδ T cells accounted for 98.59% of lymphocyte gate.
Heparin blood samples (peripheral blood 10 mL) were collected from lung cancer patients (2), and diluted with 10 mL of PBS. This was overlaid on 20 mL of Ficoll-Paque and subjected to density gradient centrifugation at 600×g for 30 min at room temperature. […] The cells were suspended in 7 mL of Yssel medium, 1 mL therefrom was stained with PE-labeled anti-human CD3 monoclonal antibody and FITC-labeled anti-human Vδ2 monoclonal antibody, and analyzed by flow cytometer. […]

[4] = test system: adult T cell leukemia cell line HCT-4; assay: Specific cytotoxicity of Vδ2 positive γδ T cells on compound-treated HCT-4 (time-resolved fluorescence); details: γδ T cells from adult T cell leukemia patients (4), E/T 1.25:1-80:1, 1 and 10 μM tested
Method: Adult T cell leukemia cell line HCT-4 cells were suspended in RPMI1640 medium at a cell concentration of 1×10^6/mL, and dispensed by 1 mL to a 15 mL conical tube. This was centrifuged at 600×g for 5 min, and the supernatant was removed. […] Thereto was added 10 mM lanthanoid metal chelating agent by 2.5 μL, and the mixture was further incubated for 15 min. These conical tubes were centrifuged at 600×g for 5 min, and the cell pellets were washed 3 times with RPMI1640 medium. Then, the cell pellets were suspended in 5 mL of RPMI1640 medium, 2 mL therefrom was placed in a different conical tube, and 6 mL of RPMI1640 medium was further added. The cell suspension was seeded by 100 μL in a 96 well round bottom plate. […] The plate was centrifuged at 600×g for 2 min, 25 μL of culture supernatant was taken, and diluted with 200 μL of europium-added acetate buffer. The mixture was taken by 200 μL, and time-resolved fluorescence was measured.

[5] = test system: Vδ2 positive γδ T cells in peripheral blood mononuclear cells of adult T cell leukemia patients; assay: Induction of Vδ2 positive γδ T cell proliferation from peripheral blood mononuclear cells of adult T cell leukemia patients (FACS); assay type: cell-based, human; details: ZOLF-POM 1 μM, cultured 11 days with IL-2
Method: as §1, with “adult T cell leukemia” for “lung cancer”, “mL” for “ml”, “2,” for “5,”, “0.75%” for “4.14%”, “91.48%” for “98.59%”
as §1, with “adult T cell leukemia” for “lung cancer”, “(2),” for “(1),”, “mL” for “ml”, “3,” for “5,”, “1.58%” for “4.14%”, “96.83%” for “98.59%”
Heparin blood samples (peripheral blood 10 mL) were collected from adult T cell leukemia patients (3), and diluted with 10 mL of PBS. […] The cells were suspended in 7 mL of Yssel medium, 1 mL therefrom was stained with PE-labeled anti-human CD3 monoclonal antibody and FITC-labeled anti-human Vδ2 monoclonal antibody, and analyzed by flow cytometer. […]

[6] = test system: human bladder cancer cell line EJ-1; assay: Specific cytotoxicity of Vδ2 positive γδ T cells on compound-treated EJ-1 (time-resolved fluorescence); details: γδ T cells from normal adult (1), E/T 0:1-40:1
Method: Human bladder cancer cell line EJ-1 cells were suspended in RPMI1640 medium at a cell concentration of 1×10^6/mL, and dispensed by 1 mL to a 15 mL conical tube. This was centrifuged at 600×g for 5 min, and the supernatant was removed. […] The compound solutions of the dilution series were added by 1 mL to the cell pellets after removal of the supernatant and incubated at 37° C. for 1 hr 45 min. Thereto was added 10 mM lanthanoid metal chelating agent by 2.5 μL, and the mixture was further incubated for 15 min. These conical tubes were centrifuged at 600×g for 5 min, and the cell pellets were washed 3 times with RPMI1640 medium. Then, the cell pellets were suspended in 5 mL of RPMI1640 medium, 2 mL therefrom was placed in a different conical tube, and 6 mL of RPMI1640 medium was further added. The cell suspension was seeded by 100 μL in a 96 well round bottom plate. Vδ2 positive γδ T cells derived from normal adult (1) were reacted at an effector cell/target cell ratio of 0:1, 5:1, 10:1, 20:1, 40:1, and incubated for 40 min at 37° C. The plate was centrifuged at 600×g for 2 min, 25 μL of culture supernatant was taken, and diluted with 200 μL of europium-added acetate buffer. The mixture was taken by 200 μL, and time-resolved fluorescence was measured.

[7] = U937, γδ T cells from normal adult (1), E/T 0:1-40:1

## NCCC(F)(P(=O)(O)O)P(=O)(O)O [PAMF, 3-amino-1-fluoro-propylidene-1,1-bisphosphonic acid]
[1]
  compound concentration that induces maximum CD107a expression: several hundred
[2]; [7]
  concentration at which sensitivity to cytotoxicity activity of Vδ2 positive γδ T cells is promoted: at least 300 μM

## CC(C)(C)C(=O)OCOP(=O)(OCOC(=O)C(C)(C)C)C(F)(Cn1ccnc1)P(=O)(OCOC(=O)C(C)(C)C)OCOC(=O)C(C)(C)C [ZOLF-POM, tetrakispivaloyloxymethyl-1-fluoro-2-(1H-imidazoyl-1-ethylidene)-1,1-bisphosphonate]
[3]; lung cancer patient (1), 4.14% before culture
  Vδ2 positive γδ T cells, proportion of lymphocyte gate: 98.59%
[3]; lung cancer patient (2), 1.95% before culture
  Vδ2 positive γδ T cells, proportion of lymphocyte gate: 95.72%
[4]
  concentration at which sensitivity to cytotoxicity activity of Vδ2 positive γδ T cells is promoted: at least 1 μM
[1]
  compound concentration that induces maximum CD107a expression: about 100 nM
[5]; adult T cell leukemia patient (1), 0.75% before culture
  Vδ2 positive γδ T cells, proportion of lymphocyte gate: 91.48%
[5]; adult T cell leukemia patient (2), 1.58% before culture
  Vδ2 positive γδ T cells, proportion of lymphocyte gate: 96.83%
[5]; adult T cell leukemia patient (3), 0.49% before culture
  Vδ2 positive γδ T cells, proportion of lymphocyte gate: 98.29%
[6]
  concentration at which sensitivity to cytotoxicity activity of Vδ2 positive γδ T cells is promoted: at least 1.25 μM

## O=P(O)(O)C(F)(Cn1ccnc1)P(=O)(O)O [ZOLF, 1-fluoro-(2-imidazoyl-1-ethylidene)-1,1-bisphosphonic acid]
[1]
  compound concentration that induces maximum CD107a expression: several hundred

## NCCCC(F)(P(=O)(O)O)P(=O)(O)O [ALEF, 4-amino-1-fluoro-butylidene-1,1-bisphosphonic acid]
[1]
  compound concentration that induces maximum CD107a expression: several hundred
[2]; [7]
  concentration at which sensitivity to cytotoxicity activity of Vδ2 positive γδ T cells is promoted: at least 300 μM

## CCCCCN(C)CCC(F)(P(=O)(O)O)P(=O)(O)O [IBAF, 1-fluoro-3-(methyl(pentyl)amino)propylidene-1,1-bisphosphonic acid]
[2]
  concentration at which sensitivity to cytotoxicity activity of Vδ2 positive γδ T cells is promoted: at least 300 μM
